Data published in patent US20260345555A1, “Compositions and Methods for Protecting Salivary Glands from Off-Target Radiation Damage” (University of Rochester, priority 2022, published 2026).
“Also recorded” adds a separate entry of the source.

Test system: senescence-associated β-galactosidase in salivary gland cell clusters (SGm)
Assay: Cellular senescence assay (SPiDER-βGal) in salivary gland tissue chip, 5 days post-radiation (15 Gy); also second screen of library hits at 100 μM; for Senescence (radioprotection): key: +: radioprotection; ~: partial radioprotection; —: no radioprotection
Assay type: cell-based, mouse
Conditions: for double hit in the drug screen: glutathione and senescence assays, 100 μM, statistically similar to 0 Gy; for Estimated EC50, Senescence: nonlinear fit in Prism of dose response curves; for Estimated EC50, Senescence / radioprotection in dose response, senescence assay / protection against radiation-induced senescence: 15 Gy; for protection against radiation-induced senescence: 5 days post-radiation

Row | Estimated EC50, Senescence [µM] | Compound | double hit in the drug screen | radioprotection in dose response, senescence assay | Senescence (radioprotection) (1 mM) | protection against radiation-induced senescence (1 mM) | Senescence (radioprotection) (4 mM) | protection against radiation-induced senescence (4 mM)
1 | 0.5 | CCn1cc(C(=O)O)c(=O)c2cc(F)c(N3CCNCC3)nc21 [Enoxacin (Penetrex)] | double hits |  |  |  |  | 
2 | 16.4 | Doripenem hydrate | double hits | variable protection |  |  |  | 
3 | 0.05 | CCCCC1C(=O)N(c2ccccc2)N(c2ccccc2)C1=O [Phenylbutazone] |  | only partial protection |  |  |  | 
4 |  | NCCCNCCS [WR-1065] |  |  | + | complete radioprotection | + | complete radioprotection; also recorded: restored to levels equivalent to 0 Gy
